Test results published in paper PMC3013143 (PLoS ONE, 2010).
No end group written: not given here.

What was measured:
human serum = conditions: 37°C, up to 2 h
[1] = test system: CAIX positive SKRC 52 cells; type: cell-based, human; conditions: 24 h
Protocol: For binding experiments 3×10^5 CAIX positive SKRC 52 cells were seeded into 6-well plates and cultivated in 3 mL of incubation medium at 37°C for 24 h. After cell blocking with RPMI 1640 (without FCS) containing 1% BSA, the medium was replaced with 1 mL of fresh medium (without FCS) containing 0.5–1.5×10^6 cpm of ^125I-labeled peptide and incubation was performed for time periods varying from 10 min to 6 h at 37°C. To determine specific versus nonspecific binding, the cells were incubated with the unlabeled CaIX-P1 peptide at concentrations varying from 10^−4 to 10^−10 mol/L. Octreotide was used as negative control competitor. After incubation the medium was removed and the cells were washed three times with 1 mL ice cold PBS in order to remove the unbound radiolabeled peptide. Subsequently, the cells were lysed with 0.5 mL NaOH 0.3 mol/L and the radioactivity was measured with a γ-counter. Bound radioactivity was calculated as percentage applied dose per 10^6 cells. Binding experiments were also performed on HCT 116 cells and on human umbilical vein endothelial cells (HUVEC) at various cell densities. CAIX negative CaKi-2 cells were used as negative control.

[2] = molecular target: T1, recombinant extracellular domain of human CAIX (Homo sapiens, UniProt Q16790); test: Binding of 125I-labeled CaIX-P1 on immobilized recombinant extracellular domain of CAIX; conditions: co-incubation of ^125I-CaIX-P1 with unlabeled CaIX-P1 at 10^−4 M, p<0.05, n = 3; read-out: Binding inhibition of the radioligand
T1 construct: Fc (Fc gamma, from pSEC-EGP-2-Fcγ vector) (C); made in house; host or cells: Flp-In-293 human embryonic kidney cells (secreted into medium)
Protocol: Binding of ^125I-labeled CaIX-P1 was performed on immobilized recombinant extracellular domain of human CAIX and of EGFR. For immobilization the target proteins CAIX and EGFR were incubated at a concentration of 50 nM in 24-well plates for 24 h. Thereafter, the plates were washed three times with 500 µl PBS pH 7.4. Incubation with ^125I-CaIX-P1 was performed in 500 µl PBS pH 7.4 for 30 min. After incubation the plates were washed three times with 500 µl ice cold PBS pH 7.4. The target proteins were degraded with 500 µl NaOH 0.3 mol/L and the radioactivity was counted with a γ-counter. Bound radioactivity was calculated as percentage applied dose. In order to evaluate the specificity of the radioligand binding, competition experiments with the unlabeled CaIX-P1 peptide at a concentration of 10^−4 M were carried out.

Stability in human serum = type: in vitro ADME; conditions: 37°C
Protocol: The stability of CaIX-P1 was investigated in human serum. The peptide was incubated at 37°C in human serum at a concentration of 10^−4 mol/L. At time points varying from 5 min to 2 h aliquots were taken, mixed with equal volume acetonitrile to precipitate serum proteins and centrifuged for 5 min at 13,000 rpm. The supernatant was analyzed with HPLC on a Chromolith Performance RP-18e 100×4.6 mm column (Merck) using a linear gradient of water and acetonitrile containing 0.1% trifluoroacetic acid. Samples of CaIX-P1 and its fragments in human serum were isolated and analyzed by MALDI-TOF mass spectrometry.

YNTNHVPLSPKY
cleaved bond (human serum): tyrosine1-N2, major, 10 min

YNTNHVPLSPKY [CaIX-P1]
IC50 [1]: 1750 ± 490 nM
inhibition at 100 µM [2]: 93%
Main product of serum degradation (Stability in human serum; 10^−4 mol/L, appeared after 10 min, HPLC isolation and MALDI-TOF mass spectrometry): lacking the N-terminal tyrosine
half-life (Stability in human serum; peptide 10^−4 mol/L, aliquots 5 min to 2 h, acetonitrile precipitation, HPLC): ~25 min
